# Where two headings read alike, the source gives them in different places.
# Experiments:
# [1] = molecular target: T1, PrbP/RpoB (two-hybrid, PrbP with RpoB 21-150) (Candidatus Liberibacter asiaticus, UniProt A0ABM5NE52); settings: E. coli TOP10, 240 min, 37 °C, inhibition of PrbP/RpoB interaction, indirect reporter
# T1 construct: gene WSI_01420
# PrbP (CLIBASIA_01510) = molecular target: T2, PrbP (CLIBASIA_01510) (Candidatus Liberibacter asiaticus, UniProt A0ABM5NE52); settings: 2.5 µM PrbP, 1 ng biotin-labelled rplK promoter probe, 10 mM HEPES pH 7.5, 150 mM NaCl, 37 °C
# T2 construct: gene WSI_01420
smiles,measurement,setting,value
CN(C)Cc1c[nH]c2ccccc12 [Gramine],β-galactosidase activity^d (% decrease),[1]; 40 µM compound,15.3 ± 0.3%
Cc1ncc([N+](=O)[O-])n1CCO [Metronidazole],β-galactosidase activity^d (% decrease),[1]; 50 µM compound,53.7 ± 10%
Cc1c(Cl)cccc1Nc1ccccc1C(=O)O [Tolfenamic acid],β-galactosidase activity^d (% decrease),[1]; 25 µM compound,17.5 ± 5.3%
same,complete disruption,PrbP (CLIBASIA_01510),350 µM

# From article PMC5067538 (Frontiers in Microbiology, 2016)
